Experimental data from patent publication US9605026B2, “Hydrogen-bond surrogate peptides and peptidomimetics for p53 reactivation” (New York University, priority 2013, dated 2017).

Tests used:
[1] = molecular target: T1, HPV16 E6-p300 association (Homo sapiens, UniProt Q09472); assay: Immunoprecipitation of HPV16 E6-p300 association in UMSCC47 cells; format: cell-based; details: UMSCC47, 10 μM, 24 hours
T1 construct: UMSCC47 cells were treated with control (vehicle), CH1iA (10 μM), or CH1iB (10 μM) for 24 hours; endogenous in cells; host or cells: UMSCC47 (HPV16-positive HNSCC cells)
Procedure: FIG. 5C is a graph of p53 activity. UMSCC47 (left) and UMSCC74A (right) cells were co-transfected with a p53 Firefly luciferase reporter plasmid and a control Renilla luciferase plasmid. After 24 hours, cells were treated with control (vehicle), CH1iA (10 μM), or CH1iB (10 μM) for 24 hours. Firefly luciferase activity was normalized to Renilla luciferase activity to control for transfection efficiency. Data is normalized to control and presented as mean±SEM. *P<0.05, n=3. FIG. 5D is a western blot showing total and acetylated p53 levels. UMSCC47 (left) and UMSCC74A (right) cells were treated with control (vehicle), CH1iA (10 μM), or CH1iB (10 μM) for 24 hours. Cell lysates were immunoblotted with anti-p53 or anti-acetylated[K382]-p53 antibody. FIG. 5E is a pair of graphs of p300, p53, p21, miR-34a, and miR-200c expression. UMSCC47 (top panel) and UMSCC74A (bottom panel) cells were treated with control (vehicle), CH1iA (10 μM), or CH1iB (10 μM) for 24 hours. mRNA expression was determined using qPCR with validated TaqMan assays. Data is normalized to control cells and presented as mean±SEM. *P<0.01, control vs. CH1iB, n=3. […] UMSCC47 cells were treated with control (vehicle), CH1iA (10 μM), or CH1iB (10 μM) for 24 hours. Cell lysates were extracted, immunoprecipitated with anti-p300 antibody, and immunoblotted with anti-E6 antibody. […]

UMSCC47 cells [2] = assay: Tumorsphere formation of UMSCC47 cells; format: cell-based, human; details: UMSCC47, 10 μM, 7 days, vs vehicle
Procedure: (§1) FIG. 6A is a western blot showing total and acetylated p53 levels. UMSCC47 cells were treated with control (vehicle), CH1iB (10 μM), cis-platinum (10 μM), or CH1iB (10 μM) and cis-platinum (10 μM) for 24 hours. Cell lysates were immunoblotted with anti-p53 or anti-acetylated[K382]-p53 antibody. FIG. 6B is a graph of p53 transcriptional activity. UMSCC47 cells were co-transfected with a p53 Firefly luciferase reporter plasmid and a control Renilla luciferase plasmid. After 24 hours, cells were treated with control (vehicle), CH1iB (10 μM), cis-platinum (10 μM), or CH1iB (10 μM) and cis-platinum (10 μM) for 24 hours. Firefly luciferase activity was normalized to Renilla luciferase activity to control for transfection efficiency. […] UMSCC47 cells were treated with control (vehicle), CH1iB (10 μM), cis-platinum (10 μM), or CH1iB (10 μM) and cis-platinum (10 μM) for 24 hours. mRNA expression was determined using qPCR with validated TaqMan assays. […] FACS was used to quantitate Annexin V-positive apoptotic cells (left panel). […] Tumorsphere formation efficiency was calculated as the number of tumorspheres (≧50 μm in diameter) formed in 7 days divided by the original number of cells seeded. Tumorsphere diameter was measured using NIS-Elements software. […]

UMSCC47 cells [3] = assay: Apoptosis (Annexin V FACS) in UMSCC47 cells; format: cell-based, human; details: UMSCC47, 10 μM, 24 hours, vs vehicle
Procedure: as §1
Cell proliferation was assessed using the MTT reagent (Roche Molecular Biochemicals, Nutley, N.J.) to detect metabolic active cells. […]

T1 sequence (Q09472 whole entry): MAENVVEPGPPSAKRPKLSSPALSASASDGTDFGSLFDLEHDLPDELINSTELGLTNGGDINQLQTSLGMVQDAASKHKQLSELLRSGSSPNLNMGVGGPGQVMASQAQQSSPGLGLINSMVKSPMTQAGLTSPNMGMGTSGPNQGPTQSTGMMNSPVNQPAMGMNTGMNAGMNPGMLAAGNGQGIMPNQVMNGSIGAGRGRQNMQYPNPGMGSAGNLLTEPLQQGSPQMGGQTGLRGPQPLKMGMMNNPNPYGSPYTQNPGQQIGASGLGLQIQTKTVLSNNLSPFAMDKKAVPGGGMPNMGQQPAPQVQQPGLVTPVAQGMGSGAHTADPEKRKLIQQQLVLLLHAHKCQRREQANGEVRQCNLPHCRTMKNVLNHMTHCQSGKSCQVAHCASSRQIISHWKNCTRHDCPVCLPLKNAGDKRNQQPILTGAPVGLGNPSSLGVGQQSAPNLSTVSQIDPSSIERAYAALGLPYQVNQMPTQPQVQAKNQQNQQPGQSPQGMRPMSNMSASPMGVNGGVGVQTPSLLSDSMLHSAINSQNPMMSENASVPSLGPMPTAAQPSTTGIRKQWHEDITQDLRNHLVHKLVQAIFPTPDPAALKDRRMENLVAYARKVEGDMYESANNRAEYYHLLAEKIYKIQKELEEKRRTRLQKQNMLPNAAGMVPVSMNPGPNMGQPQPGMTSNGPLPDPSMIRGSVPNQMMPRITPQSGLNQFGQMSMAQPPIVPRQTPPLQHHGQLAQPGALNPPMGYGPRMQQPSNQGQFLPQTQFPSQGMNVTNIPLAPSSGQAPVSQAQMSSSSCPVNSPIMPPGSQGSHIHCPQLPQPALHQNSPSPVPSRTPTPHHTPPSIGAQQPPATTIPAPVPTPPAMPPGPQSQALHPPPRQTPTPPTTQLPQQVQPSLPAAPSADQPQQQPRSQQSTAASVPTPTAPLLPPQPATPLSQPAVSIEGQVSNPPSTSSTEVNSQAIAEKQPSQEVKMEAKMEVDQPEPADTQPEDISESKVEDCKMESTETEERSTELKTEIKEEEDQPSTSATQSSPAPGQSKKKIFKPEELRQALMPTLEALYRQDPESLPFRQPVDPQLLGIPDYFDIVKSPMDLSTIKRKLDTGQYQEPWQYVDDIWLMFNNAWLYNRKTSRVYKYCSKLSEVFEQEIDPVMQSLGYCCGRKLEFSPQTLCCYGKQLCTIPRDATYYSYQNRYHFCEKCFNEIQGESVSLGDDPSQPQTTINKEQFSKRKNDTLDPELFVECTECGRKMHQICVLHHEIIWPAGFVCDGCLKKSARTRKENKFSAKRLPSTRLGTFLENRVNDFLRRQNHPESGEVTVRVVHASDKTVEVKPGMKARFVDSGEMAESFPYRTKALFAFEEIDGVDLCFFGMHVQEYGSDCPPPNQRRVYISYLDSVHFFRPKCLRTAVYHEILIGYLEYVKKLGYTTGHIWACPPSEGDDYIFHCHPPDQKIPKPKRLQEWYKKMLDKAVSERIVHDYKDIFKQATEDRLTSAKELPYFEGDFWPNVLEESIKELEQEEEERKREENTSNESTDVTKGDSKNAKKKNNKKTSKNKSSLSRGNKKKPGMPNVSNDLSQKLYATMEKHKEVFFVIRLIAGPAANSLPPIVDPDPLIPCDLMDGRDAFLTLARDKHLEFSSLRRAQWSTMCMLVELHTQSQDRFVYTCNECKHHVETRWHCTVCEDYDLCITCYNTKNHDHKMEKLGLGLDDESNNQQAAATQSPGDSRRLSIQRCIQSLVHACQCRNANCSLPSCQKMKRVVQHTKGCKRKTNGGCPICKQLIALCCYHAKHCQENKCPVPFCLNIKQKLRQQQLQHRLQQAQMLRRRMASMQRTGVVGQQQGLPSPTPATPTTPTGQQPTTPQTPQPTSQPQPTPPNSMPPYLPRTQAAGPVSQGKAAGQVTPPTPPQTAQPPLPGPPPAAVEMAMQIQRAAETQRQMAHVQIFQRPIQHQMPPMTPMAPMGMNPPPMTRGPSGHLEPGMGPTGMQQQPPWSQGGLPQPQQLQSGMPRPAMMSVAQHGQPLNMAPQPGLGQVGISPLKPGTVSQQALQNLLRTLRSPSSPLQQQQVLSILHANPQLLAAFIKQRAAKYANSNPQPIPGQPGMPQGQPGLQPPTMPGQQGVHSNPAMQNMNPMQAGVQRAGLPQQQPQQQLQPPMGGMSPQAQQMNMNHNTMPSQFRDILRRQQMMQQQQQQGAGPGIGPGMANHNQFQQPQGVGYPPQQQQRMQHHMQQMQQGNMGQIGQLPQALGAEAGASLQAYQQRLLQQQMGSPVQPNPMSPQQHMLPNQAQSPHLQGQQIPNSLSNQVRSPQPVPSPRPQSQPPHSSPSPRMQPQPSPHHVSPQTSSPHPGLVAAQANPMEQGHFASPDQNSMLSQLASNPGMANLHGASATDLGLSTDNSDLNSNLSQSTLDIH

## XELA*RALDQ-NH2 (ELXRALDQ; HBS: 4-pentenoic acid, N-allylalanine; C-terminal amide; CH1iB) [X 4-pentenoic acid, A* N-allylalanine]
[1]
  association between E6 and p300: reduced
UMSCC47 cells [2]
  reduction of tumorsphere formation: 20%
UMSCC47 cells [3]
  enhancement of apoptosis: 353%
